Source: patent US20240189388A1, “MEDICATION FOR TREATING LUNG INJURY” (SHANGHAI SEME CELL TECHNOLOGY CO., LTD., priority 2021, published 2024)

System: rats with a lung injury
Assay: BALF inflammatory factors and total protein (Example 2)
Format: in vivo, Sprague-Dawley rats
Protocol: D0: The animals in the normal control group were intraperitoneally injected with sodium chloride injection (1 ml/kg), while the animals in other groups were intraperitoneally injected with lipopolysaccharides (1 mg/kg, 1 ml/kg).
D1: After 16 h (+30 min) of intraperitoneal injection, the animals were anesthetized by inhaling isoflurane. The animals in the normal control group were nebulized with sodium chloride injection (1 mL/kg) in the trachea, while the animals in other groups were nebulized with lipopolysaccharides (5 mg/kg, 1 ml/kg) in the trachea.
Administration frequency and duration: On D1, the animals were administered for the first time within 3 h after the intratracheal nebulization with the modeling reagent (LPS); and on D2, the animals were administered for the second time. The interval between the two administrations was about 24 h (+20 min).
Sample collection: After the animals were euthanatized, the skin and tissues of the neck and chest were incised to expose the trachea, bronchi, and lungs. The bronchi in the right lung were separated and ligated. A suture was threaded under the trachea, a ½ incision was made between cartilage rings of the trachea at an appropriate position under the thyroid cartilage, a trachea cannula was slowly inserted along the incision into the airway to a left bronchus, and the inserted cannula was fastened with the trachea by using the threaded suture at an appropriate position in a centripetal direction of the incision. 3 ml of PBS buffer was slowly injected with a syringe for bronchoalveolar lavage. The lavage was repeated 3 times, with each remaining for about 10 seconds. The lavage solution was collected into a centrifuge tube of appropriate capacity.
BALF treatment: The collected lavage solution was centrifuged at 4° C. and approximately 2000 rpm for 20 min. The supernatant was stored below −60° C. for later use. The precipitate was re-suspended with I mL of PBS buffer for count and classification of white blood cells. The supernatant after BALF centrifugation was managed as a sample by using a Watson LIMS7.5 system.
Test of total protein content in the BALF: At the end of the experiment, the total protein content in the BALF was tested by a total protein test kit (BCA method).
Test of inflammatory factors in the BALF: At the end of the experiment, the inflammatory factors (IL-1β, IL-6, IL-10, and TNF-α) in the BALF were tested by an inflammatory factor test kit.

[1] = D3, 0.75 mg/kg i.v. twice, 6 rats, x ± SD

Question: How did the “IL-1β in BALF” value [1] turn out when Annexin A5 was run?
Answer: 107.45 ± 51.12 pg/mL

Question: What about the “IL-6 in BALF” value [1] of the same substance?
Answer: 14.42 ± 23.92 pg/mL

Question: And the “IL-10 in BALF” value [1]?
Answer: 0.92 ± 2.23 pg/mL

Question: And the “TNF-α in BALF” value [1]?
Answer: 4.54 ± 4.63 pg/mL

Question: What about the “Total proteins in BALF” value [1] of the same substance?
Answer: 461.31 ± 187.36 µg/mL

Question: And the “Change of BALF white blood cell counts, total protein and inflammatory factors” value (test sample group vs model control group)?
Answer: significantly decreased
